According to patent US20020197714A1, “Composition and method for increasing cell density in cell cultures infected with lentivirus” (Wyeth, priority 2001, published 2002):

Test system: Fet-J cells chronically infected with feline immunodeficiency virus (FIV)
Test: Cell density of FIV-infected Fet-J suspension cultures supplemented with antibiotics (trypan blue exclusion on hemacytometer)
Type: cell-based
Conditions: for Cell density Day 1 / Cell density Day 2 / Cell density Day 3 / Cell density Day 4 / Cell density Day 5: antibiotic 30 micrograms/mL in serum free media, planted at 3×10^5 viable cells/mL; for Effect on growth / cell density compared with cultures without antibiotic (in words): antibiotic 30 micrograms/mL, Days 1-5
Experimental: In this example, Fet-J cells chronically infected with feline immunodeficiency virus (FIV) were grown in serum free media such as modified DMEM:F12 Media or AIM V media, supplemented with 2.5 mg/mL of ALBUMAX®, which is derived from BSA. Cells were grown in suspension in Erlenmeyer flasks on a rotary shaker at 150 rpm at 37° C. Cells were planted at a cell density of 3×10^5 viable cells/mL. Cell densities were determined by trypan blue exclusion on hemacytometer. Gp 120 expression determination was accomplished by enzyme linked immunosorbent assay (ELISA) using anti-FIV Gp 120 monoclonal antibodies. The antibiotics assessed for FIV supplementation included gentamycin, neomycin and polymixin B. Media were spiked with respective antibiotics at a concentration of 30 micrograms/mL. Cell densities were determined on a 24 hour basis by the method described above.

Row | Substance | Cell density Day 1 | Cell density Day 2 | Cell density Day 3 | Cell density Day 4 | Cell density Day 5 | Effect on growth / cell density compared with cultures without antibiotic (in words)
1 | polymixin B | 2.9 × 10^5 cell/mL | 4.6 × 10^5 cell/mL | 5.8 × 10^5 cell/mL | 6.6 × 10^6 cell/mL | 6.6 × 10^5 cell/mL | suppressed cell density
2 | neomycin | 4.7 × 10^5 cell/mL | 7.8 × 10^5 cell/mL | 1.2 × 10^6 cell/mL | 1.3 × 10^6 cell/mL | 1.8 × 10^6 cell/mL | best overall growth and increase in cell densities
3 | gentamycin | 2.4 × 10^5 cell/mL | 3.2 × 10^5 cell/mL | 6.5 × 10^5 cell/mL | 1.1 × 10^6 cell/mL | 1.1 × 10^6 cell/mL | no significant effect
